Results on 26 molecules are retold here after ChEMBL document CHEMBL1201862, “PubChem BioAssay data set” (2004).

Active and inactive are the calls of the source.

A short description of assay [1]: microbe, parasite or virus in culture. The format is functional. The settings on record: Mycobacterium tuberculosis.
Assay [2] deals with T1, Corticotropin-releasing factor receptor 2/Corticotropin-releasing factor-binding protein (Homo sapiens, UniProt P24387+Q13324).
T1 sequence (Q13324 whole entry): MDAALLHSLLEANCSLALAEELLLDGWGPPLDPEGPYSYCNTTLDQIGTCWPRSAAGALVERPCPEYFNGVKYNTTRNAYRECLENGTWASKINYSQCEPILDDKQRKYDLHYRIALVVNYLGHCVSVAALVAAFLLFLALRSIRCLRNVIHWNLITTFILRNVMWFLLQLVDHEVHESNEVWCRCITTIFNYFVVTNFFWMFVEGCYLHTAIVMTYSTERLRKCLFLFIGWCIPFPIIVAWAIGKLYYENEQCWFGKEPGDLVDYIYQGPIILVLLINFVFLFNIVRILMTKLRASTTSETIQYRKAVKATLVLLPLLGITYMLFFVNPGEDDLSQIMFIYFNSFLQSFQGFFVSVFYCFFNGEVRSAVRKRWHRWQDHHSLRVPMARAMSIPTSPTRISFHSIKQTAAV
T1 sequence (P24387 whole entry): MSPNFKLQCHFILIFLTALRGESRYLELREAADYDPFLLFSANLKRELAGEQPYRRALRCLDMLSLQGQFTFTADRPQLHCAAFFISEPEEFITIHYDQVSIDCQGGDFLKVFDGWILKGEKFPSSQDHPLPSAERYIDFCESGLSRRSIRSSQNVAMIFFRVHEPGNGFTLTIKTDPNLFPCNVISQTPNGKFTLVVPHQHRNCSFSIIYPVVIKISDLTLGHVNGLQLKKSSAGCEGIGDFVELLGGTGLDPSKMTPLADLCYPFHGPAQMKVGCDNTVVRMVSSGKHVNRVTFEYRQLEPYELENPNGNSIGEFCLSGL
Kind of assay: activators of CRF receptor 2 with binding protein – uHTS hits, confirmation (AID 602473). The settings on record: read-out: EC50_Mean. Format: functional.

In assay [3] the target is T1, Corticotropin-releasing factor receptor 2/Corticotropin-releasing factor-binding protein. Kind of assay: Dose Response confirmation of uHTS hits for small molecule antagonists of the CRF-binding protein and CRF-R2 receptor complex. The settings on record: read-out: IC50_Mean. The format is functional.
Assay [4] in a line: viability of uninfected HEp-2 cells – cell-based, HTS, cytotoxicity control for RSV inhibitor project, dose response (AID 2410). Format: functional. Particulars: human respiratory syncytial virus.
In the next assay the target is Cytochrome P450 3A4 (Homo sapiens, UniProt P08684). Particulars: Potency.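 Also: confirmatory qHTS run detecting inhibitors and substrates of CYP3A4.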
Assay [5] is described as follows: luciferase reporter signal suppression in cells – H4 neuroglioma cells, luminescence, dose response (AID 1990). The format is functional, cell-based.
The target of assay [6] is T2, Calpain-2 catalytic subunit (Sus scrofa, UniProt P43367).
T2 sequence (P43367 whole entry): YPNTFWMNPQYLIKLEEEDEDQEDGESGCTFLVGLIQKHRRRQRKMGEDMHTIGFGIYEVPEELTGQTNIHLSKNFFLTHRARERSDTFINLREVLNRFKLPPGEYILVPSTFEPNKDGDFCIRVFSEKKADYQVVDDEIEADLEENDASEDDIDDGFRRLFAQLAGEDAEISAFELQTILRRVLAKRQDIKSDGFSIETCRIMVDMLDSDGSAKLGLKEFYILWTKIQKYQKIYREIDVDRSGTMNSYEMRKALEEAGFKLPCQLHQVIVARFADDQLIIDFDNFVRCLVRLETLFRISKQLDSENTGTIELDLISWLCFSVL
Kind of assay: m-calpain protease blockers, concentration series – biochemical, fluorogenic peptide substrate, dose response (AID 1420). The format is functional.

Assay [7] is described as follows: Luminescence Cell-Based Dose Response HTS to Identify Inhibitors of 5'UTR Stem-Loop Driven Prion Protein mRNA Translation in H4 Neuroglioblastoma Cells. [Related pubchem assays: 1827 (Project Summary), 1813 (Primary HTS)]. Format: functional.
Assay [8] can be described thus: alpha-synuclein stem-loop luciferase translation blockers – H4 neuroglioma cells, luminescence, confirmation (AID 1988). The format is functional, cell-based.
The target in assay [9] is Luciferin 4-monooxygenase (Photinus pyralis, UniProt P08659). As to the kind of experiment: inhibition of purified Photinus pyralis luciferase – biochemical, luminescence, dose response (AID 1891).
Assay [10] can be described thus: Luminescence Cell-Based Dose Confirmation HTS to Identify Inhibitors of Platelet Dense Granule Release. [Related pubchem assays: 1663 (Primary HTS), 1678 (Summary of Project)]. Format: functional.
Assay [11] deals with Streptococcus sp. 'group A'. As to the kind of experiment: Streptococcus pyogenes SK(-)GAS viability under kanamycin – luminescence, BacTiterGlo, confirmation, counter-screen for streptokinase expression inhibitor project, dose response (AID 1900). The format is functional, organism-based.
A further assay deals with T3, Streptokinase A (Streptococcus pyogenes serotype M1, UniProt P10520).
T3 sequence (P10520 whole entry): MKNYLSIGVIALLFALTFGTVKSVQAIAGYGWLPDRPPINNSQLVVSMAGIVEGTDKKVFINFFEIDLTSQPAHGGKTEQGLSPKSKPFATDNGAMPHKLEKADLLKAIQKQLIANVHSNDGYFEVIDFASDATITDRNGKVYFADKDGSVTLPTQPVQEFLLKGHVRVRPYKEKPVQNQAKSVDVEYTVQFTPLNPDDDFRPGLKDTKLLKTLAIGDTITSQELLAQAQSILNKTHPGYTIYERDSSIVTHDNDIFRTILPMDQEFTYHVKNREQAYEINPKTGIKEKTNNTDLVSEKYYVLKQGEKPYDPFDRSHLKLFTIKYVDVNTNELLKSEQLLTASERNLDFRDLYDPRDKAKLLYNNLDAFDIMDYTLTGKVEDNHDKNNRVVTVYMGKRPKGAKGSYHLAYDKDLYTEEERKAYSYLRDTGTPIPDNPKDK
Kind of assay: viability-normalized secreted streptokinase activity reduction – plasminogen activation absorbance, OD405, dose response (AID 1914).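 Also: secreted streptokinase activity via plasminogen activation per viability signal from cell pellet.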 Format: functional, Streptococcus pyogenes M1 GAS.

The test system of a further assay is Streptococcus. As to the kind of experiment: GAS UMAA2166 growth inhibition – luminescence, BacTiterGlo, counter-screen for streptokinase expression inhibitor project, dose response (AID 1915).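 Also: potency for reduction of bacterial viability or growth.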 Format: functional, organism-based. For orientation: Counterscreens check selectivity or assay interference.
The nature of assay [12]: Luminescence Cell-Based Dose Retest to Confirm Inhibitors of Cancer Stem Cells. [Related pubchem assays (depositor defined):AID2717, AID2721]. The format is functional. The settings on record: Homo sapiens.

Sequence of Cytochrome P450 3A4 (P08684 whole entry): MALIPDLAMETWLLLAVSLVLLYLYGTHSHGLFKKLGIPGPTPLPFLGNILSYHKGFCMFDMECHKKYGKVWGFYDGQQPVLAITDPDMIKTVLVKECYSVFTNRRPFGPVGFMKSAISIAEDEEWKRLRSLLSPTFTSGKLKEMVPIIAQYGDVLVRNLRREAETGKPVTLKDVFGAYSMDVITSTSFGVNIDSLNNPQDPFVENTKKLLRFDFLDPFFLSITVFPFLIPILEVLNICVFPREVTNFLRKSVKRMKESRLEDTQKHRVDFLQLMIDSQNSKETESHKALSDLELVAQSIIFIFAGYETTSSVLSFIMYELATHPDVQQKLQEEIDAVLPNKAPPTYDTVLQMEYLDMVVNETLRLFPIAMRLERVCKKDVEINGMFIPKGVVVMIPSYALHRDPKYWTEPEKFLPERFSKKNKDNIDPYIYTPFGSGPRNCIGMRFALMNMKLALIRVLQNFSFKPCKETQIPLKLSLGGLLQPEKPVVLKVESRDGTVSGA
Sequence of Luciferin 4-monooxygenase (P08659 whole entry): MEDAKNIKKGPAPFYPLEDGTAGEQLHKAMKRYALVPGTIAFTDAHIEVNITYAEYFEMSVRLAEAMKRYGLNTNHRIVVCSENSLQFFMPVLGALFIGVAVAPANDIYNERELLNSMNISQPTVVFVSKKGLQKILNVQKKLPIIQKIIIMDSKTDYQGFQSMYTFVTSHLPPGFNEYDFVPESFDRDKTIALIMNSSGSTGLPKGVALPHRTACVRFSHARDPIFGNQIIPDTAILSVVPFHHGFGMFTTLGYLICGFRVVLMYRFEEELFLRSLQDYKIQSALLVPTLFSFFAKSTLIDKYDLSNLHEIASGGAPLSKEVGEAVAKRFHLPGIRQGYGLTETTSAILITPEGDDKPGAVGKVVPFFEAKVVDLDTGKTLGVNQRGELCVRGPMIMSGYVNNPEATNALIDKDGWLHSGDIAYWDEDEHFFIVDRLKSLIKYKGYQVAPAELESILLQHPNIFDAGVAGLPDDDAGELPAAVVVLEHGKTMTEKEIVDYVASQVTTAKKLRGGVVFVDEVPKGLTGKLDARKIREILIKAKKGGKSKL

As to `c1ccc(CN2CCC3(CCCc4ccccc43)CC2)cc1`, the CC50 in assay [1] was > 40 µM (active).

In the case of `FC(F)(F)c1ccccc1-c1nc(-c2ccncc2)no1`, the EC50 in [2] is > 53 µM (inactive). For the same molecule, the IC50 in assay [3] is > 47.1 µM (inactive). Besides, in [4], the CC50 was 30.5 µM (active).

The term AC50 denotes the midpoint of the concentration-response curve, whichever way the signal moves. Take `COC(=O)[C@@H]1C[C@H]2CC[C@H](O)C[C@H]2N1Cc1ccc(-c2ccccc2)cc1`: the concentration at half-maximal activity (AC50) at Cytochrome P450 3A4 is 12.6 µM (inconclusive).

For `CC(C)c1ccc(/C=C/C2=NNC(=O)CC2)cc1`, the values for the EC50 in [5], in assay [7] and in [8] were < 100 nM (active), 11.5 µM (active) and 130 nM (active), respectively. Further, the IC50 in [6] was 14.3 µM (not active).

Turning to `COc1ccc2nc(NN=C3C(=O)CC(C)(C)CC3=O)sc2c1`, in assay [1], the CC50 is 26.2 µM (active).

As for `CCN(CC)CCCn1c(-c2ccccc2)nc2c(NCc3ccccc3)nc(C)nc21`, the concentration at half-maximal activity (AC50) at Cytochrome P450 3A4 is 10 µM (inconclusive).

As to `O=C(c1ccc(Oc2ccccc2)cc1)c1nc2c(n1O)CCCC2`, the IC50 in [6] was 12.9 µM (not active).

Take `CCN(c1cccc(C)c1)c1nc2ccsc2c(=O)s1`: the EC50 in assay [2] is > 53 µM (inactive). In [3], the IC50 is > 47.1 µM (inactive).

With `CCc1nnc(NC(=O)[C@@H](NC(=O)c2cc(OC)cc(OC)c2)C(C)C)s1`, the IC50 in [6] is 49.9 µM (not active). Besides, the EC50 in assay [9] and in assay [10] was > 112 µM (not active) each time.

For `O=C(/C=C/c1ccccc1[N+](=O)[O-])N1CCOCC1`, in assay [2], the EC50 is > 53 µM (inactive). The IC50 in assay [3] is > 47.1 µM (inactive).

As to `CC(=O)c1ccccc1NC(=O)Cn1c(=O)cnc2ccccc21`, the EC50 in [2] is > 53 µM (inactive). In addition, the IC50 in [3] is > 47.1 µM (inactive).

`CC(=O)OCC(=O)[C@@]1(O)CCC2C3CC(C)C4=CC(=O)C=CC4(C)C3C(O)CC21C` (stereo partly drawn): the AC50 on Cytochrome P450 3A4 is 12.6 µM (inconclusive).

On to `CCc1cccc2c(SCC(=O)NCC3CCCO3)nc(-c3ccc(F)cc3)nc12` (stereo not drawn), for which the IC50 in [6] was 26.2 µM (not active).

Consider `O=C(COC(=O)COc1ccc(Cl)cc1Br)NCc1cccs1`, for which, in [2], the EC50 was > 53 µM (inactive). In addition, in assay [3], the IC50 was > 47.1 µM (inactive).

For `O=C1NN=C(c2ccc(Cl)cc2)CC1c1cccc(Br)c1` (stereo not drawn), in [6], the IC50 is 12.5 µM (not active).

In the case of `CCCC1Cc2c(sc(NC(=S)NC(=O)c3ccccc3)c2C#N)CO1` (stereo not drawn), the IC50 in assay [6] is listed as 31 µM (not active).

In the case of `N#Cc1ccc(C23CC4(C2)[C@H](CN(CC2CCCCC2)[C@@H]4c2ccccc2)C3c2ccc(C(F)(F)F)cc2)cc1` (stereo partly drawn), the half-maximal activity concentration (AC50) at Cytochrome P450 3A4 is 15.8 µM (inconclusive).

As to `Clc1ccc2nc(-c3ccccn3)c(Nc3ccc4c(c3)OCO4)n2c1`, the IC50 in assay [6] was 0.608 µM (not active). The EC50 in assay [11] was 6.89 µM (active); on Streptokinase A, > 150 µM (not active); in the assay on Streptococcus, 12.7 µM (active).

Consider `c1ccc(Nc2ccc3ccccc3c2)cc1`, for which the concentration at half-maximal activity (AC50) at Cytochrome P450 3A4 is 25.1 µM (inconclusive).

With `CCNC(=O)NCc1c(C)c(C)n(Cc2ccccc2)c1-n1cccc1`, the IC50 in assay [6] is listed as 8.86 µM (not active).

For `CC(NC(=O)CCCCCN1C(=O)c2ccccc2C1=O)c1ccc2c(c1)CCCC2` (stereo not drawn), the IC50 in assay [6] is reported as 10.7 µM (not active).

As for `Cc1ccccc1C(=O)Nc1ccc(-c2nc3cc(C(=O)c4ccccc4)ccc3[nH]2)cc1`, the CC50 in assay [4] was 6.02 µM (active); in [1], > 40 µM (active). In addition, the half-maximal activity concentration (AC50) in assay [12] was 1.36 µM (active).

On to `Cc1nc(SCC(=O)NC(C)c2ccccc2)c2oc3ccccc3c2n1` (stereo not drawn), for which, in assay [6], the IC50 is < 0.4 µM (not active).

`Cc1ccc(-c2csc(NC(=S)NC(=O)c3ccco3)n2)cc1`: the IC50 in assay [6] was 4.46 µM (not active).

In the case of `CCCCCC(=O)NNC(=O)c1ccc(F)cc1`, the EC50 in assay [2] is > 53 µM (inactive). In assay [3], the IC50 is > 47.1 µM (inactive).

For `CCC1=C(OC(=O)N(CC)CC)N2C(=O)O/C(=N\CCc3c[nH]c4ccccc34)[C@]2(Cc2ccccc2)[C@H]2C1=CC[C@H]1C(=O)NC(=O)[C@H]12`, in assay [1], the CC50 is > 40 µM (active).
